Measured values reported in US8299277B2, “Radiation protection drug containing tocopherol or tocotrienol compound ester derivative as active ingredient” (priority 2006, dated 2012).

System: male C3H mice irradiated with X-rays
Experiment: 30-day survival of mice after X-ray irradiation (radiation protection)
Type: in vivo
Protocol: Seven to thirteen male C3H mice aged 10 weeks (body weight: 25-28 g) per group were irradiated with X-rays (7.5-8.5 Gy) and their survival rate was determined 30 days after the irradiation. To each of drug-treated groups was intraperitoneally or subcutaneously administered 0.5% methylcellulose solution (0.3 ml) containing d-γ-tocopherol-N,N-dimethylglycine ester hydrochloride in an amount of 10-300 mg/Kg, before or after the irradiation. To a control group was intraperitoneally administered 0.5% methylcellulose solution in a volume of 0.3 ml per mouse.
Eight to eleven male C3H mice aged 10 weeks (body weight: 25-28 g) per group were irradiated with X-rays (7.5 Gy) and their survival rate was measured 30 days after the irradiation. To drug-treated groups was intraperitoneally administered 0.5% methylcellulose solution (0.3 ml) containing d-α-tocopherol-N,N-dimethylglycine ester hydrochloride, d-γ- or d-α-tocotrienol-N,N-dimethylglycine ester hydrochloride, d-γ- or dl-α-tocopherol phosphate disodium salt, or d-γ-tocopherol-N-methyl-L-proline ester hydrochloride, respectively, in an amount of 100 mg/Kg, immediately after the irradiation. To a control group was intraperitoneally administered 0.5% methylcellulose solution in a volume of 0.3 ml per mouse.

[1] = 100 mg/kg i.p., 7.5 Gy X-rays, administered immediately after irradiation, C3H mice (Table 2)

With CC(C)=CCCC(C)=CCCC(C)=CCCC1(C)CCc2cc(OC(=O)CN(C)C)c(C)c(C)c2O1.Cl (stereo not drawn) [d-γ-Tocotrienol-N,N-dimethylglycine ester hydrochloride] the “Survival rate after 30 days (%)” value [1] was 85%.

With Cc1c(OP(=O)([O-])[O-])cc2c(c1C)OC(C)(CCCC(C)CCCC(C)CCCC(C)C)CC2.[Na+].[Na+] (stereo not drawn) [d-γ-Tocopherol phosphate disodium salt] the “Survival rate after 30 days (%)” value [1] was 70%.

Cc1c(OC(=O)CN(C)C)cc2c(c1C)OC(C)(CCCC(C)CCCC(C)CCCC(C)C)CC2.Cl (stereo not drawn) [d-γ-tocopherol-N,N-dimethylglycine ester hydrochloride] was tested, and the “Survival rate after 30 days (%)” value (10 mg/kg i.p., 7.5 Gy X-rays, administered immediately after irradiation, C3H mice) was 10%, the “Survival rate after 30 days (%)” value (20 mg/kg i.p., 7.5 Gy X-rays, administered immediately after irradiation, C3H mice) was 60% and the “Survival rate after 30 days (%)” value (50 mg/kg i.p., 7.5 Gy X-rays, administered immediately after irradiation, C3H mice) was 85%. The “Survival rate after 30 days (%)” value (100 mg/kg S.C. administration, 7.5 Gy X-rays, administered immediately after irradiation, C3H mice) was 85%, the “Survival rate after 30 days (%)” value (100 mg/kg i.p., 7.5 Gy X-rays, administered 30 min. before irradiation, C3H mice) was 60% and the “Survival rate after 30 days (%)” value (100 mg/kg i.p., 7.5 Gy X-rays, administered 1 hr. after irradiation, C3H mice) was 88%. The “Survival rate after 30 days (%)” value (100 mg/kg i.p., 7.5 Gy X-rays, administered 10 hrs. after irradiation, C3H mice) was 75%, the “Survival rate after 30 days (%)” value (100 mg/kg i.p., 7.5 Gy X-rays, administered 24 hrs. after irradiation, C3H mice) was 40% and the “Survival rate after 30 days (%)” value (100 mg/kg i.p., 7.5 Gy X-rays, administered immediately after irradiation, C3H mice (Table 1)) was 98%. For the same compound, the “Survival rate after 30 days (%)” value (100 mg/kg i.p., 7.5 Gy X-rays, administered immediately before irradiation, C3H mice) was 80%, the “Survival rate after 30 days (%)” value (100 mg/kg i.p., 8 Gy X-rays, administered immediately after irradiation, C3H mice) was 78% and the “Survival rate after 30 days (%)” value (100 mg/kg i.p., 8.5 Gy X-rays, administered immediately after irradiation, C3H mice) was 37%. For the same compound, the “Survival rate after 30 days (%)” value (300 mg/kg i.p., 7.5 Gy X-rays, administered immediately after irradiation, C3H mice) was 55%.

With Cc1c(C)c2c(c(C)c1OC(=O)CN(C)C)CCC(C)(CCCC(C)CCCC(C)CCCC(C)C)O2.Cl (stereo not drawn) [d-α-tocopherol-N,N-dimethylglycine ester hydrochloride] the “Survival rate after 30 days (%)” value [1] was 95%.

With CC(C)=CCCC(C)=CCCC(C)=CCCC1(C)CCc2c(C)c(OC(=O)CN(C)C)c(C)c(C)c2O1.Cl (stereo not drawn) [d-α-Tocotrienol-N,N-dimethylglycine ester hydrochloride] the “Survival rate after 30 days (%)” value [1] was 91%.

In the case of Cc1c(C)c2c(c(C)c1OP(=O)([O-])[O-])CCC(C)(CCCC(C)CCCC(C)CCCC(C)C)O2.[Na+].[Na+] (racemic) [dl-α-Tocopherol phosphate disodium salt], the “Survival rate after 30 days (%)” value [1] is reported as 40%.

For Cc1c(OC(=O)[C@@H]2CCCN2C)cc2c(c1C)OC(C)(CCCC(C)CCCC(C)CCCC(C)C)CC2.Cl (stereo partly drawn) [d-γ-tocopherol-L-N-methylproline ester hydrochloride], the “Survival rate after 30 days (%)” value [1] was 90%.
